Ten compounds from ChEMBL document CHEMBL4261597, “1,2,3-Triazole fused with pyridine/pyrimidine as new template for antimicrobial agents: Regioselective synthesis and identification of potent N-heteroarenes” (2018) can be followed below.

Structures are written as SMILES. Calls of active or inactive are those of the source. The calls are words filed in the database; no cut-off is given here.

Assay [1] has as its system Bacillus subtilis. The experiment in a line: Antibacterial activity against Bacillus subtilis at 25 to 100 ug after 24 hrs. The format is functional, organism-based.
The test system of assay [2] is Escherichia coli. Description: Antibacterial activity against Escherichia coli assessed as zone of inhibition at 10 ug after 24 hrs. The format is functional. To be noted: for zone of inhibition at 10 µg/disc: read-out: DIZ.
Assay [3] has as its system Bacillus subtilis. Description: Antibacterial activity against Bacillus subtilis assessed as zone of inhibition at 10 ug after 24 hrs. The format is functional. Particulars: for zone of inhibition at 10 µg/disc: read-out: DIZ.
In assay [4] the test system is Escherichia coli. Description: Antibacterial activity against Escherichia coli at 25 to 100 ug after 24 hrs. It counts as functional, organism-based.
Assay [5] deals with Fusarium oxysporum. Description: Antifungal activity against Fusarium oxysporum lycopersici assessed as zone of inhibition at 10 ug after 48 hrs. Particulars: read-out: DIZ. The format is functional, Fusarium oxysporum f. sp. lycopersici.
In assay [6] the test system is Fusarium. Description: Antifungal activity against Fusarium recini assessed as zone of inhibition at 10 ug after 48 hrs. It counts as functional. To be noted: read-out: DIZ.
The subject of assay [7] is Fusarium. The experiment in a line: Antifungal activity against Fusarium recini after 48 hrs. It counts as functional.
The test system of assay [8] is Fusarium oxysporum. Description: Antifungal activity against Fusarium oxysporum lycopersici after 48 hrs. The format is functional, Fusarium oxysporum f. sp. lycopersici.
In assay [9] the test system is Escherichia coli. The experiment in a line: Antibacterial activity against Escherichia coli after 24 hrs. The format is functional.
Assay [10] has as its system Bacillus subtilis. The experiment in a line: Antibacterial activity against Bacillus subtilis after 24 hrs. The format is functional.

`Oc1ncnc2c1nnn2Cc1ccccc1`: the outcome with Bacillus subtilis [1] and in the assay with Escherichia coli [4] was inactive. Besides, the “diameter of the inhibition zone (DIZ)” value in the assay with Escherichia coli [2] and in the assay with Bacillus subtilis [3] was “inactive” each time. For the same compound, the zone of inhibition at 10 µg/disc in the assay with Fusarium oxysporum [5] is 5 mm; in the assay on Fusarium [6] it was 6 mm. Moreover, the MIC is 50 µg in the assay on Fusarium [7] and 100 µg with Fusarium oxysporum [8].
As for `Cc1ccc(-n2nnc3cccnc32)c(C)c1`, the “diameter of the inhibition zone (DIZ)” value in the assay on Escherichia coli [2] and in the assay on Bacillus subtilis [3] was “inactive” each time. Further, the zone of inhibition at 10 µg/disc in the assay with Fusarium oxysporum [5] and in the assay on Fusarium [6] was 6 mm in each case. The MIC in the assay with Fusarium [7] was found to be 100 µg; in the assay with Fusarium oxysporum [8] it was 75 µg.
On to `Fc1ccc(-n2nnc3cnc(Cl)cc32)cc1`, for which the “diameter of the inhibition zone (DIZ)” value with Escherichia coli [2] and in the assay with Bacillus subtilis [3] was “inactive” throughout. The zone of inhibition at 10 µg/disc in the assay with Fusarium oxysporum [5] was found to be 3 mm; in the assay with Fusarium [6], 7 mm. Also, the MIC against Fusarium [7] and in the assay on Fusarium oxysporum [8] was 50 µg each time.
On to `Clc1cc2c(cn1)nnn2Cc1ccccc1`, for which the zone of inhibition at 10 µg/disc was found to be 10 mm in the assay on Escherichia coli [2], 13 mm in the assay with Bacillus subtilis [3], 1 mm with Fusarium oxysporum [5] and 7 mm in the assay on Fusarium [6]. The MIC against Fusarium [7] worked out at 25 µg; against Fusarium oxysporum [8], 100 µg; with Escherichia coli [9], 25 µg; in the assay with Bacillus subtilis [10] it was 25 µg.
As to `Clc1cc2c(cn1)nnn2C1CCOCC1`, the “diameter of the inhibition zone (DIZ)” value with Escherichia coli [2] and in the assay with Bacillus subtilis [3] was “inactive” in each case. Further, the zone of inhibition at 10 µg/disc in the assay on Fusarium oxysporum [5] and in the assay with Fusarium [6] was 6 mm in each case. In addition, the MIC in the assay with Fusarium [7] came to 25 µg; in the assay on Fusarium oxysporum [8], 50 µg.
As for `CN[C@@H]1[C@H](O[C@H]2[C@H](O[C@H]3[C@H](O)[C@@H](O)[C@H](N=C(N)N)[C@@H](O)[C@@H]3N=C(N)N)O[C@@H](C)[C@]2(O)C=O)O[C@@H](CO)[C@H](O)[C@H]1O` [STREPTOMYCIN], the zone of inhibition at 10 µg/disc in the assay with Escherichia coli [2] stood at 13 mm; with Bacillus subtilis [3], 16 mm. The MIC in the assay with Escherichia coli [9] and against Bacillus subtilis [10] was 25 µg each time.
Regarding `c1cnc2c(c1)nnn2C1CCOCC1`, the “diameter of the inhibition zone (DIZ)” value in the assay on Escherichia coli [2] and in the assay on Bacillus subtilis [3] was “inactive” throughout. For the same compound, the zone of inhibition at 10 µg/disc in the assay on Fusarium oxysporum [5] turned out to be 3 mm; in the assay on Fusarium [6] it was 5 mm. For the same compound, the figures for the MIC in the assay on Fusarium [7] and against Fusarium oxysporum [8] were 50 µg and 75 µg, respectively.
In the case of `COc1ccc(-n2nnc3cnc(Cl)cc32)cc1`, the “diameter of the inhibition zone (DIZ)” value with Escherichia coli [2] and in the assay with Bacillus subtilis [3] was “inactive” each time. The zone of inhibition at 10 µg/disc amounted to 6 mm in the assay on Fusarium oxysporum [5] and 7 mm with Fusarium [6]. For the same compound, the MIC in the assay with Fusarium [7] is 25 µg; against Fusarium oxysporum [8], 50 µg.
As to `COc1ccc(-n2nnc3cccnc32)cc1`, the “diameter of the inhibition zone (DIZ)” value with Escherichia coli [2] and in the assay with Bacillus subtilis [3] was “inactive” in each case. Further, the zone of inhibition at 10 µg/disc in the assay on Fusarium oxysporum [5] is 2 mm; in the assay on Fusarium [6], 3 mm. Also, the results for the MIC against Fusarium [7] and with Fusarium oxysporum [8] were 50 µg and 100 µg, respectively.
Turning to `Fc1ccc(-n2nnc3cccnc32)cc1`, the zone of inhibition at 10 µg/disc with Escherichia coli [2] was 11 mm; in the assay on Bacillus subtilis [3] it was 12 mm; in the assay with Fusarium oxysporum [5] it was 6 mm; in the assay with Fusarium [6] it was 5 mm. Besides, the MIC with Fusarium [7] came out at 50 µg; against Fusarium oxysporum [8], 75 µg; against Escherichia coli [9], 100 µg; in the assay with Bacillus subtilis [10], 25 µg.
